Source: patent publication US20250152605A1, “METHOD AND DRUG FOR TREATING NEURONAL CEROID LIPOFUSCINOSIS” (priority 2021, published 2025)
“Also recorded” adds a separate entry of the source.

Assays:
[1] = system: CLN3^Δex7/8 neural stem cells; test: Immunofluorescence staining of neural stem cell lineage markers; assay type: cell-based, human; conditions: 48 hours of treatment
Protocol: Fixation: the cell medium was aspirated and the cells were washed once with dPBS, then 4% paraformaldehyde solution was added to fix the cells, which were then incubated at room temperature for 20 min and washed 3 times with dPBS for 5 min each; blocking and permeabilization: blocking solution (5% BSA and 0.3% Trinton-X100 dissolved in dPBS) was added, incubation at room temperature for 1 hour followed by washing with dPBS 3 times for 5 minutes each; primary antibody incubation: the antibody was diluted with dPBS containing 5% BSA according to the specification, incubated overnight at 4° C. or 2 hours at room temperature, and washed 3 times with dPBS for 5 minutes each; secondary antibody incubation: the secondary antibody of the corresponding species was diluted with dPBS containing 5% BSA at a ratio of 1:1000, incubated at room temperature for 1 hour, and then washed with dPBS 3 times for 5 minutes each; nuclear staining: DAPI was diluted to 100 ng/ml with dPBS, incubated at room temperature for 5 minutes, and washed 3 times with dPBS for 5 minutes each; imaging: imaging was performed using Olympus IX83 Inverted Motorized Microscope or Opera Phenix™ High Content Screening System.
After 48 hours of treatment of CLN3^Δex7/8 neural stem cells with Compound G, immunofluorescence staining was performed for the neural stem cell lineage markers SOX1, PAX6 and NESTIN.

[2] = system: CLN3^Δex7/8 human neural stem cells; test: Tandem LC3 autophagic flux in human neural stem cells; assay type: cell-based
Text: After lysosomal function defects were detected in CLN3^Δex7/8 neural stem cells and neurons, autophagic flux in the cells was further examined. Equal amounts of lentivirus packaged with tandem LC3 plasmid were used to infect wild-type and CLN3^Δex7/8 cells to label intracellular autophagosomes.
Autophagosomes in neural stem cells were labeled using tandem LC3, and the number of autophagosomes with green fluorescence and those with red fluorescence only were observed by high-intensity laser confocal microscope.

[3] = system: CLN3^Δex7/8 neurons; test: Mitochondrial morphology with OMP25-GFP, laser confocal microscope; assay type: cell-based, human
Text: Studies have shown that healthy mitochondria have a short stick-like morphology, with large potential differences across the mitochondrial membrane, which allows efficient generation of ATP that maintains normal cellular function. Damaged mitochondria undergo the process of mitochondrial fission, in which the mitochondria split into a punctate morphology, encapsulated by autophagosome, and transported into lysosomes for degradation. To detect the presence of abnormal mitochondrial morphology in CLN3^Δex7/8 human neurons, a Lentivirus plasmid with green fluorescent protein labeled OMP25 was constructed and used to infect wild-type and CLN3^Δex7/8 human neurons
To test the effect of compound G on mitochondrial homeostasis in CLN3^Δex7/8 neurons, fluorescently labeled mitochondrial outer membrane protein OMP25-GFP was overexpressed in neurons, and the morphological changes of mitochondria were observed by laser confocal microscope. […] The amount of ATP generation in the same number of neurons was tested using Cell Titer Glo reagent.

[4] = system: Cln3 KO mice; test: Immunohistochemical staining of SCMAS in Cln3 KO mouse brain; assay type: in vivo; conditions: Cln3 KO mice treated from 21 days to 2 months of age
[5] = system: Cln3 KO mice; test: Morris water maze; assay type: in vivo, mouse; conditions: 7th day test
Protocol: To test the difference in learning and memory abilities of Cln3 KO mice and wild-type mice, and the effect of Compound G on learning and memory abilities of Cln3 KO mice, a Morris water maze was performed, with specific procedures as follows: the mice to be tested were kept in single cages for more than 1 week to adapt to the environment; the maze used in this study was a circular pool with a diameter of 120 cm and a depth of 40 cm; the pool wall is divided into four quadrants including northeast (NE), northwest (NW), southwest (SW) and southeast (SE) with circles, squares, triangles and crosses respectively. The platform was placed at a fixed position in the SW quadrant with a diameter of 11 cm and a height of 18 cm; milky white water containing titanium dioxide was added to the pool, the amount of added water being just short of the platform is suitable; the water temperature was adjusted to about 22° C.; the mouse was gently put into the water from the designated position shown in Table 5, and the movement of the mouse within 60 seconds was recorded through the video equipment. If the mouse found the platform within 60 seconds, its time to find the platform was recorded; if the mouse could not find the platform within 60 seconds, it was guided to the platform and held for 15 seconds.
The mice were removed from the platform, wiped clean with a dry towel and returned to their cages. Each mouse was trained 4 times a day, with a 30-minute interval between each training, for a total of 6 days, and mice that cannot swim were excluded; on the Day 7, the platform in the water was taken out, and then the mice were gently put into the water from the NE direction, and the movement of the mouse within 60 seconds was recorded with a video equipment. The time it took for the mouse to find the platform for the first time and the time the mouse stayed in the SW quadrant were analyzed and counted using Noldus software. In addition, the experimenter manually counted the number of times the mouse crossed the location of the original platform within 60 seconds.
Starting from day 21 on which the Cln3 KO mice were weaned, treatment of Compound G was continuously provided. […]
First, the mice were trained in the water maze for 6 days, and the time it took for them to find the underwater platform was recorded. […] The time that the mice spent reaching the position of the original platform for the first time, the number of shuttles at the position of the original platform and the time stayed in the quadrant of the original platform were recorded, which characterized whether they have learned the position of the underwater platform through the first 6 days of training.

[6] = system: mouse tail tip fibroblasts (TTF); test: qRT-PCR of autophagy-related and lysosomal genes in mouse tail tip fibroblasts; assay type: cell-based
Protocol: The cells in the cell-culture dish were collected, extracted using AxyPrep Total RNA Mini Prep Kit or Qiagen AxyPrep Total RNA Mini Prep Kit, and the extracted RNA concentration is measured using Nanodrop; the extracted mRNA was reverse transcribed into cDNA by Transgen's EasyScript® One-Step gDNA Removal and cDNA Synthesis SuperMix and the primers used for reverse transcription were Oligo dT primers; the completion of reverse transcription followed by qRT-PCR reaction through PerfectStart™ Green qPCR SuperMix to detect the expression of the target gene; the qRT-PCR reaction was performed on the Bio-Rad CFX96 Real-Time PCR system; see Table 2 and Table 3 for the 20 μL qRT-PCR reaction system and reaction procedures; data analysis was performed in Prism 7 software using the 2^−ΔΔCt process with GAPDH as internal reference for relative quantification of the expression of the target gene.
Compound G was added to the mouse tail tip fibroblasts (TTF), after incubation for 6 hours, mRNA was extracted, and the transcription level of the autophagy-related genes and the lysosomal genes in the cells was detected.
First, lentivirus packaged with control shRNA or FXR shRNA-2 was used to infect the mouse TTF. After treatment with Compound G, mRNA was extracted for detection of gene transcription.

C/C=C1\C(=O)C[C@H]2[C@@H]3CCC4=CC(=O)CC[C@]4(C)[C@H]3CC[C@]12C [Compound G, (Z)-guggulsterone]
neural stem cell lineage markers SOX1, PAX6 and NESTIN (cell fate) [1]: maintained the characteristics of SOX1, PAX6 and NESTIN positive | number of red fluorescence single-positive autophagosomes [2]: increased the number of red fluorescence single-positive autophagosomes | damaged punctate mitochondria [3]: significantly reduce the occurrence of damaged punctate mitochondria; also recorded: significantly reduce the appearance of the damaged mitochondria | substances (SCMAS) abnormally stored in the brains [4]: alleviate the amount of the substances abnormally stored in the brains of Cln3 KO mice to a certain extent | movement speed of the mice in water [5]: no significant effect | number of times they shuttle at the position of the original platform [5]: closer to that of the wild-type mice | time spent reaching the position of the original platform for the first time [5]: effectively shorten | time stayed in the quadrant of the original platform [5]: extended the time stayed in the quadrant of the original platform to a certain extent | expression of the autophagy-related genes ([6]; TTF infected with FXR shRNA-2): failed to increase | transcription level of the autophagy-related genes and the lysosomal genes ([6]; TTF, incubation for 6 hours): significantly increase | expression of the autophagy-related genes ([6]; control shRNA-infected TTF): significantly increase
